Measurements published in PMC12027443, “Surface Plasmon Resonance (SPR) for the Binding Kinetics Analysis of Synthetic Cannabinoids: Advancing CB1 Receptor Interaction Studies” (International Journal of Molecular Sciences, 2025).
Where two headings read alike, the source gives them in different places.

Legend:
CB1 receptor [1] = molecular target: T1, CB1 receptor (Homo sapiens, UniProt P21554); parameters: method as in PMID 26686391; conditions: read-out: GTPγS Binding Assay Ki Value; Table 2; cited from earlier work
T1 sequence (P21554 whole entry): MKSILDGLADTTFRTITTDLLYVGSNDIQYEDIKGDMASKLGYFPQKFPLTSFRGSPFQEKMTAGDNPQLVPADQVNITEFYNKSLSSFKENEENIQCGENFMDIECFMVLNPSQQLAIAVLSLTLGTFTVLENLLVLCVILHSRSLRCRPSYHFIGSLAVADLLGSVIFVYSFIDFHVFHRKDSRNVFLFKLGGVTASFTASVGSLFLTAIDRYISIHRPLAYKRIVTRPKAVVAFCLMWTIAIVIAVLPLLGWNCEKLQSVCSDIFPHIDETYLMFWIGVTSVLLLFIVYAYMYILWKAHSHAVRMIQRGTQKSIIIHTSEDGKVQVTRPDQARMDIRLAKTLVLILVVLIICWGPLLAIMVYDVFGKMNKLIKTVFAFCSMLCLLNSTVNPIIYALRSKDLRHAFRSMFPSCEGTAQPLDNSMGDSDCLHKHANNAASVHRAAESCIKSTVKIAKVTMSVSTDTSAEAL

CB1 receptor [2] = molecular target: T1, CB1 receptor; parameters: method as in PMID 40180269; conditions: SPR affinity assessment, earlier study, cited from earlier work
mice [3] = system: mice; parameters: method as in PMID 40180269; conditions: hypothermia, motor suppression, catalepsy; ranking among 4F-ABUTINACA, JWH-018, SDB-005; cited from earlier work
CB1 receptor [4] = molecular target: T1, CB1 receptor; parameters: method as in PMID 31021521; conditions: read-out: βarr2 Recruitment Assay EC50 Values; HEK293T cell lines; Table 3; cited from earlier work
mice [5] = system: mice; parameters: method as in PMID 40180269; conditions: ranking among 4F-ABUTINACA, JWH-018, SDB-005; cited from earlier work
mice [6] = system: mice; parameters: method as in PMID 40180269; conditions: cited from earlier work
CB1 receptor [7] = molecular target: T1, CB1 receptor; test: Surface Plasmon Resonance (SPR) affinity assay, CB1 protein immobilized on CM5 chip (Biacore T200); assay type: binding
Procedure: The ligand immobilization was conducted in four steps: ligand pre-enrichment, activation, coupling, and blocking. To prepare the 1.05× PBS-P buffer, it was diluted from the 10× PBS-P buffer. For ligand pre-enrichment, the Biacore T200 (cytiva, Marlborough, MA, USA; manufactured in Sweden) pre-enrichment program was employed. The 300 μg/mL protein stock solution was diluted to a final concentration of 15 μg/mL using 10 mM sodium acetate solutions at pH 4.0, 4.5, 5.0, and 5.5, respectively. The ligand was flowed over the surface of a blank chip at a flow rate of 30 μL/min to assess the effect of electrostatic adsorption. Based on the response difference and slope, the optimal coupling pH of 4.0 was selected. For activation, the Biacore T200 manual coupling program was used. The carboxylic acid groups on the chip surface were activated by injecting a 1:1 mixture of EDC and NHS from the amino-coupling kit at a flow rate of 10 μL/min for 900 s. During the coupling step, the 300 μg/mL protein stock solution was diluted 10-fold to 30 μg/mL using sodium acetate at pH 4.0. […]
For solvent correction, eight solvent correction points were established, with correction cycles performed at the beginning, end, and every 30 samples during the experiment. […] The system continuously monitored and recorded the sensorgram of the interaction between the sample and the CB1 protein in real time. […]

| SMILES | Ki (CB1 receptor [1]) | effects in the tetrad test (mice [3]) | reward potential in the CPP test (mice [5]) | also measured |
| --- | --- | --- | --- | --- |
| CCCCCn1cc(C(=O)c2cccc3ccccc23)c2ccccc21 [JWH-018] | 3.38 nM | intermediate | intermediate | Kd (CB1 receptor [2]): 39300 nM; EC50 (CB1 receptor [4]): 36.8 nM |
| O=C(NC12CC3CC(CC(C3)C1)C2)c1nn(CCCCF)c2ccccc12 [4F-ABUTINACA] | – | most pronounced effects | strongest reward potential | LD50 (acute toxicity) (mice [6]): 11.62 mg/kg; Kd (CB1 receptor [2]; read-out: KD): 20100 nM |
| C=CCCCn1nc(C(=O)NC(C(=O)OC)C(C)(C)C)c2ccccc21 (centres unmarked) [MDMB-4en-PINACA] | – | – | – | affinity relative to AMB-4en-PICA (CB1 receptor [7]; ratio of KD values, MDMB-4en-PINACA versus AMB-4en-PICA): six-fold higher affinity |
| O=C(NC12CC3CC(CC(C3)C1)C2)c1cn(CCCCCF)c2ccccc12 [STS-135] | 1.93 nM | – | – | – |
| CCCCCn1nc(C(=O)Oc2cccc3ccccc23)c2ccccc21 [SDB-005] | – | weaker | weaker | Kd (CB1 receptor [2]; read-out: KD): 53000 nM |
| CC(C)C(NC(=O)c1nn(CC2CCCCC2)c2ccccc12)C(N)=O (centres unmarked) [AB-CHMINACA] | – | – | – | EC50 (CB1 receptor [4]): 0.34 nM |
| O=C(NC12CC3CC(CC(C3)C1)C2)c1nn(CCCCCF)c2ccccc12 [5F-AKB-48] | 0.87 nM | – | – | reduction in the KD value on substitution of parent core from indole to indazole (CB1 receptor [7]; 5F-AKB-48 versus STS-135): 50% |
